Reference: publication PMC2970562, “High-Affinity Inhibitors of Human NAD^+-Dependent 15-Hydroxyprostaglandin Dehydrogenase: Mechanisms of Inhibition and Structure-Activity Relationships” (PLoS ONE, 2010)
Each block holds one molecule with its values, some of them ahead of it.

Columns and labels:
[1] = biological target: recombinant human placental 15-PGDH; settings: cited from earlier work
[2] = biological target: T1, human 15-PGDH (Homo sapiens, UniProt P15428); test: Differential scanning fluorimetry (DSF), thermal stabilization; format: binding; settings: for ∆Tm [°C] NAD+: with 200 µM NAD+; for ∆Tm [°C] NAD+ / ∆Tm [°C] NADH / ∆Tm [°C] apo: 1 µM protein, compound 50 or 250 µM, N/A = no unfolding transition observed in DSF; for ∆Tm [°C] NADH: with 200 µM NADH; for ∆Tm [°C] apo: without cofactor
T1 construct: comprising residues 3–256 of the human HPGD gene (GenBank identifier: 1203982); His6 (GHHHHHH, behind the TEV site) (C, cleaved yes); made in house; host or cells: E. coli BL21(DE3)-R3
T1 sequence (P15428 3-256): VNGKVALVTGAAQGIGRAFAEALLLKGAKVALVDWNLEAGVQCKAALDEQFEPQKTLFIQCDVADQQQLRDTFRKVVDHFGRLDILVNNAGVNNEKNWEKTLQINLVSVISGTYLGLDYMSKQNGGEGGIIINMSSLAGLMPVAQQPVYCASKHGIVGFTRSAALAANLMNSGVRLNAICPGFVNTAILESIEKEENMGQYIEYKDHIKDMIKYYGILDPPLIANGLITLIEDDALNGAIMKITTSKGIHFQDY
Experimental: A correlation between the ΔTm and the inhibitory potency has been shown in a number of protein-ligand systems, particularly for kinases [32]–[34].
Studies to assess the thermal stability of human 15-PGDH in presence of compounds were performed as described previously, with variations. Briefly, the protein was diluted to a final assay concentration of 1 µM in 100 mM Tris buffer pH 8.0, containing 0.01% Tween-20 and 1∶1000 SYPRO orange dye (Invitrogen). […] Compounds were added at a ratio of 1∶5 from appropriate stock solutions in 10% (v/v) DMSO to comprise either 50 or 250 µM final concentrations. Heat denaturation curves were recorded using a RT-PCR instrument (Mx3005p, Agilent) applying a temperature gradient of 2°C/min. […] 2.5 (ftp://ftp.sgc.ox.ac.uk/pub/biophysics) and PRISM 5.0 (GraphPad Software, Inc.).

[3] = biological target: T1, human 15-PGDH; test: qHTS and 24-point re-test: fluorescence assay of NAD+ reduction to NADH on PGE2 oxidation (PubChem AID 894); format: biochemical; settings: potency in 24-point titrations on re-test; 20 nM 15-PGDH, 1 mM NAD+, 30 µM PGE2, pH 8.0; read-out: qHTS IC50
Experimental: The assay was miniaturized to a 4-µL volume in 1536-well format: enzyme (3 µL) was dispensed first, followed by a pintool transfer of library compounds dissolved in DMSO. After equilibration, a substrate dispense (1 µL) initiated the enzymatic reaction (see Materials and Methods, for detailed protocol description). […] Hits associated with low-efficacy (<40% maximum inhibition), incomplete curves, as well as those displaying only a single-point inhibition at the top concentration tested were eliminated from further consideration. Similarly, the collection of real-time kinetic data allowed the autofluorescence of each compound to be evaluated by comparing the initial fluorescence read at top concentration with the mean value of uninhibited assay controls: compounds whose top-concentration initial well fluorescence exceeded six standard deviations over the mean were flagged as potential autofluorescent artifacts, [28] (see example in supplementary information Figure S1E). The complete screening and followup results are available in PubChem (PubChem Assay ID 894).
The enzymatic reaction was performed in 50 mM Tris-HCl pH 8.0, containing 0.01% Tween 20. […] The high-throughput screen was performed on a fully integrated robotic system (Kalypsys Inc, San Diego, CA) as described elsewhere. Library compounds, arrayed as seven-point inter-plate concentration series, were screened from the lowest (3.5 nM) to the highest (57.5 µM) concentration, with plates containing DMSO only, serving to note any systematic drifts in the signal, interspersed evenly throughout the screen (approximately every 50 plates). Briefly, 3 µL of reagents were dispensed into 1536-well Greiner black solid-bottom assay plates using integrated nanoliter solenoid-technology dispensers. Compounds and controls (23 nL) were transferred via Kalypsys pintool equipped with 1,536-pin array (10-nL slotted pins; V&P Scientific, Palo Alto, CA). After a 15-minute incubation (to allow for interaction between compound and enzyme), a 1-µL substrate addition step initiated the reaction. Kinetic data were collected on a ViewLux High-throughput CCD imager (Perkin-Elmer) equipped with standard UV fluorescence optics (exc. 340 nm, em. 450 nm).
Starting fluorescence intensity and the change in fluorescence over the two-minute initial rate period were recorded for every well. Screening data were normalized against no-enzyme (64 wells, columns 3 and 4) and no-compound (32 wells located in column 1) controls, and concentration-response relationships were derived as described previously. A four-parameter Hill equation [47] was fitted to the concentration-response data using publicly available algorithms (http://www.ncgc.nih.gov/pub/openhts/curvefit/).

[4] = biological target: T2, ALDH1A1 (Homo sapiens, UniProt P00352); test: Selectivity screen, aldehyde dehydrogenase 1 (PubChem Assay ID 1030); format: biochemical
T2 sequence (P00352 1-501): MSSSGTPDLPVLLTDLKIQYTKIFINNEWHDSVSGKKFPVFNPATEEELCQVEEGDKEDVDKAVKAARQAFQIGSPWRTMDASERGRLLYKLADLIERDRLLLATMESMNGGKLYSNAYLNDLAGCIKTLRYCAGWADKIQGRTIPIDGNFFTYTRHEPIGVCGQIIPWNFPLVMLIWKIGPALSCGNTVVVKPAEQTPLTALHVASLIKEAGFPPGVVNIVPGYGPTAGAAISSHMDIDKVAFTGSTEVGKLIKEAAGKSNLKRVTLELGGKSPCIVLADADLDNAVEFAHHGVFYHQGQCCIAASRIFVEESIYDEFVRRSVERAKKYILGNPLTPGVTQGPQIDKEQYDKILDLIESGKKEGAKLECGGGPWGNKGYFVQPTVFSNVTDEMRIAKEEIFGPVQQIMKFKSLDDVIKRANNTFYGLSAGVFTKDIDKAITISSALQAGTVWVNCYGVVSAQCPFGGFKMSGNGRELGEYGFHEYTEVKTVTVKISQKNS
Experimental: The list also includes two SDR enzymes, hydroxyacyl dehydrogenase (HADH2, also known as type-10 hydroxysteroid dehydrogenase, HSD17β10; PubChem Assay ID 886) and type-4 hydroxysteroid dehydrogenase (HSD17β4; PubChem Assay ID 893), and a medium-chain dehydrogenase/reductase (MDR), aldehyde dehydrogenase 1 (ALDH1A1; PubChem Assay ID 1030), each of which was tested using a similar experimental protocol to that used for 15-PGDH.

[5] = biological target: T1, human 15-PGDH; test: Substrate (PGE2) and cofactor (NAD+) titrations, mechanism of action, global fitting; format: biochemical; settings: for Competitive (CM), fit residual Chi^2 value / Mixed-mode (MM), fit residual Chi^2 value / Noncompetitive (NM), fit residual Chi^2 value / Uncompetitive (UM), fit residual Chi^2 value: global fitting; for Titration of NAD^+ K m / Titration of NAD^+ V max [µmol/(min×mg)] / Titration of NAD^+ k cat/K m[×10^6] / Titration of NAD^+ k cat[1/sec]: 30 µM PGE2
Experimental: Kinetic studies were performed in 100 mM Tris buffer pH 8.0, containing 0.01% Tween-20 and 10 nM 15-PGDH enzyme. […] All inhibitor compounds were dissolved in 10% (v/v) DMSO at varying concentrations from which they were applied at 1∶5 ratio (resulting in a final concentration of 2% (v/v) DMSO in all assays). For each experiment an aliquot of purified enzyme was thawed freshly and pre-diluted to 10 µM in buffer I (5 mM Tris/HCl, pH 8.0, 150 mM NaCl, 0.01% Tween-20). All experiments were performed in white 384-well PCR microplates (Bio-Rad Laboratories, Inc.) in final assay volumes of 20 µL. Twelve-point compound titrations were set up from serially diluted stock solutions in 10% (v/v) DMSO. […] The initial rates recorded in compound titrations were plotted against -log[compound], and non-linear regression (Levenberg-Marquardt) fitting of the dose-response curve to the Hill equation [47] was performed to derive the IC50, using PRISM 5.0 (GraphPad Software, Inc.). For substrate/cofactor titrations, curves with initial rates plotted against the concentration of substrate or cofactor were fitted to the Michaelis-Menten equation, to derive maximal activities, V max, and Michaelis constants, K m. Fitting qualities were judged from the goodness of fit (R^2>0.98).

∆Tm [°C] NAD+ [2]: 7.6 °C
∆Tm [°C] NADH [2]: 1.5 °C
∆Tm [°C] apo [2]: -0.2 °C
IC50 [3]: 631 nM
Structure (SMILES): Fc1ccccc1CSc1nc2cc(Br)cnc2[nH]1 [Compound 60]

response against ALDH1A1 ([4]; in words): flat response
IC50 ([4]; top concentration 57.5 µM, PubChem Assay ID 1030, read-out: IC50/nM ALDH1A1): > 57500 nM
Sum-of-squares F-test p, UM vs. MM ([5]; NAD^+ titration): UM vs. MM: p = 0.1058
Sum-of-squares F-test p, CM vs. MM ([5]; PGE2 titration): CM vs. MM:p = 0.0001
effect on the V max ([5]; PGE2 titration, in words): almost no effect
increase in the K m ([5]; PGE2 titration, inhibitor 50 nM): 3 fold
Preferred mode of inhibition ([5]; PGE2 titration, rejection threshold p = 0.05): MM (MM, mixed-mode inhibition)
Competitive (CM), fit residual Chi^2 value ([5]; NAD^+ titration): 0.9507
Mixed-mode (MM), fit residual Chi^2 value ([5]; NAD^+ titration): 0.9841
Noncompetitive (NM), fit residual Chi^2 value ([5]; NAD^+ titration): 0.9834
Uncompetitive (UM), fit residual Chi^2 value ([5]; NAD^+ titration): 0.9837
Competitive (CM), fit residual Chi^2 value ([5]; PGE2 titration): 0.9845
Mixed-mode (MM), fit residual Chi^2 value ([5]; PGE2 titration): 0.9866
Noncompetitive (NM), fit residual Chi^2 value ([5]; PGE2 titration): 0.9800
Uncompetitive (UM), fit residual Chi^2 value ([5]; PGE2 titration): 0.9742
mode of inhibition with respect to the cofactor NAD+ ([5]; in words): uncompetitive
mode of inhibition with respect to the substrate PGE2 ([5]; in words): competitive inhibition
Titration of PGE2 K m ([5]; inhibitor 10.0 nM): 7.5 ± 0.5 µM
Titration of PGE2 V max[µmol/(min×mg)] ([5]; inhibitor 10.0 nM): 29.0 µmol/min/mg
Titration of PGE2 k cat/K m[×10^6] ([5]; inhibitor 10.0 nM): 1.8 ×10^6
Titration of NAD^+ K m ([5]; inhibitor 10.0 nM): 17.0 ± 0.8 µM
Titration of NAD^+ V max [µmol/(min×mg)] ([5]; inhibitor 10.0 nM): 21.1 µmol/min/mg
Titration of NAD^+ k cat/K m[×10^6] ([5]; inhibitor 10.0 nM): 0.6 ×10^6
Titration of NAD^+ k cat[1/sec] ([5]; inhibitor 10.0 nM): 10.3 ± 0.1 s⁻¹
Titration of PGE2 K m ([5]; inhibitor 50.0 nM): 13.5 ± 1.3 µM
Titration of PGE2 V max[µmol/(min×mg)] ([5]; inhibitor 50.0 nM): 25.6 µmol/min/mg
Titration of PGE2 k cat/K m[×10^6] ([5]; inhibitor 50.0 nM): 0.9 ×10^6
Titration of PGE2 k cat[1/sec] ([5]; inhibitor 50.0 nM): 12.4 ± 0.3 s⁻¹
Titration of NAD^+ K m ([5]; inhibitor 50.0 nM): 11.1 ± 1.2 µM
Titration of NAD^+ V max [µmol/(min×mg)] ([5]; inhibitor 50.0 nM): 10.2 µmol/min/mg
Titration of NAD^+ k cat/K m[×10^6] ([5]; inhibitor 50.0 nM): 0.4 ×10^6
Titration of NAD^+ k cat[1/sec] ([5]; inhibitor 50.0 nM): 5.0 ± 0.1 s⁻¹
ΔTm in the presence of NAD+ [2]: 12.2±0.1 °C
ΔTm in the presence of NADH [2]: 2.9±0.5 °C
∆Tm [°C] NAD+ [2]: 12.2 °C
∆Tm [°C] NADH [2]: 2.9 °C
∆Tm [°C] apo [2]: -1.2 °C
Structure (SMILES): N#Cc1ccccc1CSc1nc2cc(Br)c[nH]c-2n1 [Compound 61]

∆Tm [°C] NADH [2]: -0.2 °C
IC50 [3]: 631 nM
Structure (SMILES): COc1ccc(CNC(=O)CCn2c(-c3cccc(C)c3)n[nH]c2=S)cc1 [Compound 65]

∆Tm [°C] NADH [2]: -0.7 °C
IC50 [3]: 355 nM
Structure (SMILES): C=CCn1c(=NC(=O)c2cc(C)n(C)n2)sc2cc(Cl)ccc21 [Compound 66]

Second part, the molecule before the results:

Structure (SMILES): CCOC(=O)c1ccc(N=Nc2ccc(O)c(CC(=O)O)c2)cc1 [CAY10397]
Ki ([1]; human 15-PGDH ref 24): 110 nM

Structure (SMILES): CC1(COc2ccc(CC3SC(=O)NC3=O)cc2)CCCCC1 (stereo not drawn) [Ciglitazone]
IC50 ([1]; recombinant human placental 15-PGDH ref 22): 2700 nM

Structure (SMILES): Cc1cc(C(=O)N2CCN(C)CC2)c(C)n1C1CC1 [Compound 59]
∆Tm [°C] NAD+ [2]: 6.9 °C
∆Tm [°C] NADH [2]: 1.7 °C
∆Tm [°C] apo [2]: -6.1 °C
IC50 [3]: 2240 nM
